Like-named read-outs stand apart in the source and are kept apart here.
Tests used:
[1] = tested on: CCRF-CEM (childhood T-cell acute lymphoblastic leukaemia); assay: MTS cytotoxicity assay, CCRF-CEM; assay type: cell-based; settings: Homo sapiens, read-out: IC50 cytotoxic activity CCRF-CEM
Description: (§1) The p53 deficient variant, HCT116p53−/−, was purchased from Horizon Discovery (Cambridge, UK). The daunorubicin-resistant CCRF-CEM cell line CEM-DNR bulk and paclitaxel-resistant K562-TAX sublines were developed in-house by exposing parental cell lines to escalating concentrations of daunorubicin and paclitaxel, respectively. Cells were maintained in the recommended culture medium (Sigma-Aldrich, St. Louis, MO) supplemented with 10% foetal calf serum, 100 U/mL penicillin, and 100 μg/mL streptomycin. The HUVEC line was obtained from PromoCell (Heidelberg, Germany). The cells were cultured in endothelial cell growth medium with SupplementMix for endothelial cells (PromoCell, Heidelberg, Germany). The incubation conditions were a humidified atmosphere of 95% air and 5% CO2 at 37 °C[10]. Cells were seeded in 384-well plates and after overnight incubation treated with compounds. All tested compounds were dissolved in 100% DMSO, and fourfold serial dilutions were performed using an Echo550 liquid handler (Labcyte, San Jose, CA). The experiments were performed in technical duplicates and three biological replicates. Cells were incubated with compounds for 72 h and thereafter 5 μL of MTS reagent was added to each well.

[2] = tested on: CEM-DNR (daunorubicin resistant variant of CCRF-CEM); assay: MTS cytotoxicity assay, CEM-DNR; assay type: cell-based, human; settings: Homo sapiens, CEM-DNR, read-out: IC50 cytotoxic activity CEM-DNR
Description: as §1

[3] = tested on: K562 (chronic myelogenous leukaemia); assay: MTS cytotoxicity assay, K562; assay type: cell-based; settings: Homo sapiens, read-out: IC50 cytotoxic activity K562
Description: as §1

[4] = tested on: K562-TAX (paclitaxel-resistant variant of K562); assay: MTS cytotoxicity assay, K562-TAX; assay type: cell-based, human; settings: for IC50: Homo sapiens, K562-Tax, read-out: IC50 cytotoxic activity K562-TAX
Description: as §1

[5] = tested on: A549 (lung adenocarcinoma); assay: MTS cytotoxicity assay, A549; assay type: cell-based, human; settings: Homo sapiens, read-out: IC50 cytotoxic activity A549
Description: as §1

[6] = tested on: HCT116 (colorectal adenocarcinoma); assay: MTS cytotoxicity assay, HCT116; assay type: cell-based; settings: Homo sapiens, read-out: IC50 cytotoxic activity HCT116
Description: as §1

[7] = tested on: HCT116p53−/− (p53 gene null variant of HCT116); assay: MTS cytotoxicity assay, HCT116p53−/−; assay type: cell-based; settings: Homo sapiens, read-out: IC50 cytotoxic activity HCT116p53-
Description: as §1

U2OS (osteosarcoma) = assay: MTS cytotoxicity assay, U2OS; assay type: cell-based, human; settings: Homo sapiens, U2OS, read-out: IC50 cytotoxic activity U2OS
Description: as §1

[8] = MTS cytotoxicity assay, MRC-5; assay type: cell-based; settings: human
Description: as §1

[9] = MTS cytotoxicity assay, BJ; assay type: cell-based; settings: human
Description: as §1

[10] = MTS cytotoxicity assay, HUVEC; assay type: cell-based; settings: human
Description: as §1

porcine brain tubulin = target: T1, porcine brain tubulin (Sus scrofa, UniProt P02550+P02554); assay: Tubulin polymerisation assay; assay type: biochemical; settings: 10 μmol/L, Vmax relative to DMSO
T1 construct: purchased Cytoskeleton, Denver, CO; host or cells: porcine brain (tissue-purified)
T1 sequence (P02550 whole entry): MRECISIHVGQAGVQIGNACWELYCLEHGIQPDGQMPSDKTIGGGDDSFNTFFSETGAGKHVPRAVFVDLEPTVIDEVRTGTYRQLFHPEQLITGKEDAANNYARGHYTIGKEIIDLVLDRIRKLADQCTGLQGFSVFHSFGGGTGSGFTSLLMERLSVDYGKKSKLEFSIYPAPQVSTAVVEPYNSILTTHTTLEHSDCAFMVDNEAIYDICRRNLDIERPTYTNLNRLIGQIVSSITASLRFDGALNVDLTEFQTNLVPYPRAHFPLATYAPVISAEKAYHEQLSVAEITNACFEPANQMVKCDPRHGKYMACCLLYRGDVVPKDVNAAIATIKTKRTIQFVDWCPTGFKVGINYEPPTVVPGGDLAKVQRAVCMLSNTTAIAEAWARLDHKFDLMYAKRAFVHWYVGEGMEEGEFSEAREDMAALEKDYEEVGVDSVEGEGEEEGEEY
T1 sequence (P02554 whole entry): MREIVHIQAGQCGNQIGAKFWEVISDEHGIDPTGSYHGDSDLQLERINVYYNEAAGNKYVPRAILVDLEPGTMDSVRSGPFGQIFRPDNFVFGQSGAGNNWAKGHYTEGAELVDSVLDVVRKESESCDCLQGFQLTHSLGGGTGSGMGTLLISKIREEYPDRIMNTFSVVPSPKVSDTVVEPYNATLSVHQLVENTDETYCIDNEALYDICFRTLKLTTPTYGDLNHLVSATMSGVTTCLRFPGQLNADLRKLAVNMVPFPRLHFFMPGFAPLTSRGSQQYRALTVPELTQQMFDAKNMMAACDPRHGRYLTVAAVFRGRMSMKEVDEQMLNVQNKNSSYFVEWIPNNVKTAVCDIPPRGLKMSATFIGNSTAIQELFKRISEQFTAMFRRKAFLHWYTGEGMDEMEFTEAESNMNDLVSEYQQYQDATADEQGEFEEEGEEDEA
Description: Tubulin polymerisation assay kit (Cytoskeleton, Denver, CO) was used according to the manufacturer’s instructions. Polymerisation of porcine brain tubulin (>99% purity) was measured using an EnVision Multilabel Plate Reader (PerkinElmer, Waltham, MA) at 37 °C, in the presence of either 10 μmol/L test compounds or DMSO. Maximum polymerisation velocity (Vmax) was calculated from the polymerisation curves. Data visualisation was performed in OriginPro 2018b (b9.5.5.409) software (OriginLab Corporation, Northampton, MA)[10].

CCRF-CEM lymphoblasts [11] = assay: Cell cycle analysis by flow cytometry (propidium iodide); assay type: cell-based, human
Description: (§2) To further characterise the mode of action of studied compounds, we analysed the cell cycle profile of CCRF-CEM cells treated with compounds for 24 h. […] The compounds ED1–ED9 and ED12 induced arrest in G2/M phase of the cell cycle (Figure 2(A)). To differentiate between G2 block and mitotic arrest, we used phospho-histone H3 (Ser10) mitotic marker (Figure 2(B)). […] Generally, dimers induced a dose-dependent increase of sub G1 cell population with fragmented DNA except for ED2 and ED4 (Figure 2(C)). […] To assess the proliferation of treated cells, they were subjected to 5-bromo-2-deoxyuridine (BrDU) labelling. […] Analogously, changes in 5-bromouridine (BrU) incorporation were examined to monitor overall RNA synthesis.
(§3) Treated CCRF-CEM cells were harvested, washed with ice-cold phosphate-buffered saline (PBS), fixed in cold 70% ethanol and stored at −20 °C. Prior to analysis, fixed cells were permeabilised with 0.25% Triton X-100 in PBS for 15 min, blocked in 1% bovine serum, and incubated with anti-phospho-Histone H3 (Ser^10) antibody (Merck Millipore, Burlington, MA). Subsequently, the cells were treated with 50 μg/mL RNAse, stained with propidium iodide and analysed by FACSCalibur (Becton Dickinson, Franklin Lakes, NJ) flow cytometer at 488 nm. Cell cycle distribution (G1, S, and G2/M) was analysed using ModFitLT software (Verity, Topsham, ME), and reflects only viable population prior to the fixing procedure. Particles with lower propidium iodide content than G1 phase cells were classified as non-viable cells with fragmented DNA. Flow cytometry data visualisation was performed using OriginPro 2018b (b9.5.5.409) software (OriginLab Corporation, Northampton, MA)[10].

CCRF-CEM lymphoblasts [12] = assay: Phospho-histone H3 (Ser10) mitotic marker, flow cytometry; assay type: cell-based, human
Description: as §2, §3

CCRF-CEM lymphoblasts [13] = assay: BrDU incorporation analysis (DNA synthesis); assay type: cell-based, human
Description: as §2
Thirty minutes before harvesting, cells were pulse-labelled with 10 μM BrDU. After overnight fixation in ice-cold 70% ethanol, cells were resuspended in 2 M HCl for 30 min at room temperature (RT), then washed with 0.1 M Na2B4O7 and blocked with PBS containing 0.5% Tween-20 and 1% BSA. BrDU incorporation was analysed using anti-BrdU antibody clone MoBu-1 (Exbio, Vestec, Czech Republic) and a secondary anti-mouse-FITC antibody (Sigma-Aldrich, St. Louis, MO). Cells were washed with PBS and stained with 0.1 mg/mL propidium iodide and 0.5 mg/mL RNase A for 1 h at RT and analysed by flow cytometry using a 488 nm single beam laser (FACSCalibur, Becton Dickinson, Franklin Lakes, NJ). The percentage of cells with incorporated BrDU was analysed using CellQuest software.

CCRF-CEM lymphoblasts [14] = assay: BrU incorporation analysis (RNA synthesis); assay type: cell-based, human
Description: as §2
Prior to the trypsinisation, cells were treated with 1 mM BrU for 30 min. Subsequently, the cells were fixed in 1% paraformaldehyde with 0.05% of NP-40 for 15 min at RT and stored overnight at 4 °C. Fixed cells were washed with 1% glycine in PBS and stained with primary anti-BrdU antibody clone MoBu-1 crossreacting with BrU (Exbio, Vestec, Czech Republic) for 30 min at RT, washed with PBS and labelled with secondary anti-mouse-FITC antibody (Sigma-Aldrich, St. Louis, MO). Following 1-h incubation in 1% paraformaldehyde containing 0.05% NP-40, cells were stained with propidium iodide (0.1 mg/mL) and treated with RNase A (0.5 mg/mL) for 1 h at RT. The percentage of BrU positive cells was quantified using CellQuest software.

[15] = MTS assay, 72-h incubation, mean ± SD of 3 independent experiments
[16] = K562, MTS assay, 72-h incubation, mean ± SD of 3 independent experiments
[17] = A549, MTS assay, 72-h incubation, mean ± SD of 3 independent experiments
[18] = HCT-116, MTS assay, 72-h incubation, mean ± SD of 3 independent experiments
[19] = MRC-5 cells (non-tumour fibroblasts), MTS assay, 72-h incubation, mean ± SD of 3 independent experiments, read-out: IC50 cytotoxic activity MRC-5
[20] = BJ cells (non-tumour skin fibroblasts), MTS assay, 72-h incubation, mean ± SD of 3 independent experiments, read-out: IC50 cytotoxic activity BJ

Structure (SMILES)	inhibitory activity against tubulin polymerisation (in words) (porcine brain tubulin)	<G1 (sub-G1, fragmented DNA), % of positive cells (CCRF-CEM lymphoblasts [11]; 1×IC50, 24 h)	>G2/M (polyploidy), % of positive cells (CCRF-CEM lymphoblasts [11]; 1×IC50, 24 h)	G0/G1, % of positive cells (CCRF-CEM lymphoblasts [11]; 1×IC50, 24 h)	G2/M, % of positive cells (CCRF-CEM lymphoblasts [11]; 1×IC50, 24 h)	S, % of positive cells (CCRF-CEM lymphoblasts [11]; 1×IC50, 24 h)	<G1 (sub-G1, fragmented DNA), % of positive cells (CCRF-CEM lymphoblasts [11]; 5×IC50, 24 h)	>G2/M (polyploidy), % of positive cells (CCRF-CEM lymphoblasts [11]; 5×IC50, 24 h)	G0/G1, % of positive cells (CCRF-CEM lymphoblasts [11]; 5×IC50, 24 h)	G2/M, % of positive cells (CCRF-CEM lymphoblasts [11]; 5×IC50, 24 h)	S, % of positive cells (CCRF-CEM lymphoblasts [11]; 5×IC50, 24 h)	pH3Ser10, % of positive cells (CCRF-CEM lymphoblasts [12]; 1×IC50, 24 h)	pH3Ser10, % of positive cells (CCRF-CEM lymphoblasts [12]; 5×IC50, 24 h)	BrDU, % of positive cells (CCRF-CEM lymphoblasts [13]; 1×IC50, 24 h)	BrDU, % of positive cells (CCRF-CEM lymphoblasts [13]; 5×IC50, 24 h)	BrU, % of positive cells (CCRF-CEM lymphoblasts [14]; 1×IC50, 24 h)	BrU, % of positive cells (CCRF-CEM lymphoblasts [14]; 5×IC50, 24 h)	IC50 [2, 15]	IC50 [3, 16]	IC50 [4, 15]	further results
C[C@]12CC[C@@H]3c4ccc(O)cc4CC[C@H]3[C@@H]1CC[C@@]2(O)c1cn(Cc2cccc(Cn3cc([C@]4(O)CC[C@H]5[C@@H]6CCc7cc(O)ccc7[C@H]6CC[C@@]54C)nn3)c2)nn1 [ED1, (17β,17′β)-17,17′-[Benzene-1,3-diylbis(methanediyl-1H-1,2,3-triazole-1,4-diyl)]bisestra-1,3,5(10)-triene-3,17-diol]	comparable or better inhibitory activity	55.53%	10.7%	0.28%	74.70%	25.01%	64.75%	17.65%	0.27%	75.07%	24.67%	61.09%	64.45%	38.15%	6.70%	48.16%	31.42%	–	–	–	IC50 ([1]; 72 h): 1.6 ± 0.27 µM; IC50 ([2]; 72 h): > 50 µM; IC50 ([3]; K562, 72 h): 1.63 ± 0.12 µM; IC50 cytotoxic activity K562-TAX [4]: sensitive; IC50 ([4]; 72 h): 1.58 ± 0.16 µM; IC50 ([5]; A549, 72 h): 1.68 ± 0.2 µM; IC50 ([6]; HCT-116, 72 h): 1.41 ± 0.3 µM; IC50 ([7]; HCT-116, 72 h): 1.5 ± 0.32 µM; IC50 (U2OS (osteosarcoma); 72 h): 1.95 ± 0.44 µM; IC50 at 72 h [8]: > 50 µM; IC50 at 72 h [9]: > 50 µM; IC50 at 72 h [10]: 0.0135 ± 0.002 µM
Cc1cc(C)c(Cn2cc([C@]3(O)CC[C@H]4[C@@H]5CCc6cc(O)ccc6[C@H]5CC[C@@]43C)nn2)c(C)c1Cn1cc([C@]2(O)CC[C@H]3[C@@H]4CCc5cc(O)ccc5[C@H]4CC[C@@]32C)nn1 [ED10, 17,17′-[(2,4,6-Trimethyl-1,3-phenylene)bis(methylene-1H-1,2,3-triazole-1,4-diyl)]di[estra-1,3,5(10)-triene-3,17β-diol]]	inactive	–	–	–	–	–	–	–	–	–	–	–	–	–	–	–	–	–	–	–	–
C[C@]12CC[C@@H]3c4ccc(O)cc4CC[C@H]3[C@@H]1CC[C@@]2(O)c1cn(Cc2c(Cl)c(Cl)c(Cl)c(Cn3cc([C@]4(O)CC[C@H]5[C@@H]6CCc7cc(O)ccc7[C@H]6CC[C@@]54C)nn3)c2Cl)nn1 [ED11, 17,17′-[(2,4,5,6-Tetrachloro-1,3-phenylene)bis(methylene-1H-1,2,3-triazole-1,4-diyl)]di[estra-1,3,5(10)-triene-3,17β-diol]]	inactive	–	–	–	–	–	–	–	–	–	–	–	–	–	–	–	–	–	–	–	–
C#C[C@]1(O)CC[C@H]2[C@@H]3CCc4cc(O)ccc4[C@H]3CC[C@@]21C [EE, 17α-ethinylestradiol, reference compound]	–	–	–	–	–	–	–	–	–	–	–	–	–	–	–	–	–	23 ± 4.7 µM	8.72 ± 2.17 µM	15.6 ± 6.25 µM	IC50 [5, 17]: 31.5 ± 4.16 µM; IC50 [6, 18]: 30 ± 6.89 µM; IC50 [7, 18]: 33.6 ± 11.9 µM; IC50 (U2OS (osteosarcoma); [15]): 22.4 ± 5.65 µM; IC50 at 72 h [8, 19]: > 50 µM; IC50 at 72 h [9, 20]: > 50 µM
COc1cc2c(cc1O)CC[C@@H]1[C@@H]2CC[C@]2(C)[C@@H](O)CC[C@@H]12 [ME, 2-methoxyestradiol, reference compound]	–	23.97%	6.2%	31.50%	28.85%	39.65%	65.32%	10.4%	1.19%	84.03%	14.77%	17.74%	67.40%	9.31%	9.49%	23.60%	46.10%	1.61 ± 0.2 µM	1.43 ± 0.39 µM	1.32 ± 0.2 µM	IC50 [1, 15]: 1.61 ± 0.097 µM; IC50 [5, 17]: 2.26 ± 0.15 µM; IC50 [6, 18]: 1.58 ± 0.25 µM; IC50 [7, 18]: 1.99 ± 0.41 µM; IC50 (U2OS (osteosarcoma); [15]): 2.13 ± 0.3 µM; IC50 at 72 h [8, 19]: > 50 µM; IC50 at 72 h [9, 20]: > 50 µM; IC50 at 72 h ([10]; HUVEC cells (umbilical vein endothelial cells), MTS assay, 72-h incubation, mean ± SD of 3 independent experiments, read-out: IC50 cytotoxic activity HUVEC): 1.07 ± 0.18 µM
